{"source": "patent US20090270361A1", "about": "“Substituted pyrazole derivatives and use thereof” (Takeda Pharmaceutical Company Limited, priority 2008, published 2009)", "key": {"[1]": {"tested_on": "Human prostate cancer cells LNCaP-FGC", "test": "Prostate specific antigen (PSA) production inhibition test in prostate cancer cells", "assay_type": "cell-based", "conditions": "for inhibition at 1 µM: Homo sapiens, 72 h, read-out: PSA production inhibitory rate (%)"}, "[2]": {"molecular_target": "T1, mutant AR (W741C) (Homo sapiens, UniProt P10275, W742C)", "T1 construct": "expressed in transfected cells; host or cells: Cos-7", "T1 sequence (P10275 1-920 W742C)": "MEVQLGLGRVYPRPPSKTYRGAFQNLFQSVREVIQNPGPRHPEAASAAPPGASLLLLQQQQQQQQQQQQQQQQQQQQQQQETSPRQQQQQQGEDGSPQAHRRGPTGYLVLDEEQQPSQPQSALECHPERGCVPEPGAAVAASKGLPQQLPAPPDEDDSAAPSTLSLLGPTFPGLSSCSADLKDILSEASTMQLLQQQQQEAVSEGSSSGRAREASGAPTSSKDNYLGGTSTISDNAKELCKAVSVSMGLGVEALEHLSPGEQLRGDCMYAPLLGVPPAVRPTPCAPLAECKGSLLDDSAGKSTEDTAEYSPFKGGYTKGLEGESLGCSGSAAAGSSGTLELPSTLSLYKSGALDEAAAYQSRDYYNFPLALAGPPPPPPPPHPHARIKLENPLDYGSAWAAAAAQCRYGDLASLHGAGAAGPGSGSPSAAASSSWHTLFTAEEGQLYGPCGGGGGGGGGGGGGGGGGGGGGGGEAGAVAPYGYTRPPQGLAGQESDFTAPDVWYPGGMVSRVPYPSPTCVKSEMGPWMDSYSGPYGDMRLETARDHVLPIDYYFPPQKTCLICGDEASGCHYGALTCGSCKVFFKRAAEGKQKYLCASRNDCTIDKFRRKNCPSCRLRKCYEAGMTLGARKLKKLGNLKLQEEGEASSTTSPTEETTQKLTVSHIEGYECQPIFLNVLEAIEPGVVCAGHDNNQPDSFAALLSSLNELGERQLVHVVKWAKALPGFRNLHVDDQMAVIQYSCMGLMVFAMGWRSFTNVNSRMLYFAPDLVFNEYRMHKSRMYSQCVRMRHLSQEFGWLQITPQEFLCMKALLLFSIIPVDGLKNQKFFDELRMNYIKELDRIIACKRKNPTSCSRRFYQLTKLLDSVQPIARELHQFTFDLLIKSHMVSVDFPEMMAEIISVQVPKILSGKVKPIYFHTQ", "test": "AR transcription inhibition test (luciferase reporter in Cos-7 cells)", "assay_type": "cell-based", "conditions": "compound 1 μM; DHT 0.1 μM; Cos-7 cells cotransfected with mutant AR (W741C) and androgen responsive luciferase reporter; 24 hr; relative to control (0.1 μM DHT); read-out: AR transcription inhibitory rate (%)", "procedure": "AR Transcription Inhibition Test\nCos-7 cells (5,000,000 cells) were inoculated to a flask, and incubated in a culture medium (DMEM +10% Dextran Charcoal (DCC)-Fetal Bovine Serum (FBS) and 2 mM glutamine) for 24 hours. Then, a vector DNA harboring mutant AR (W741C) and a vector DNA containing a luciferase gene bound at the downstream of an androgen responsive promoter were cotransfected by a liposome method. After 4 hr, the medium was changed and, after culture for 3 hr, DHT (dihydrotestosterone) at the final concentration of 0.1 μM and the compound at the final concentration of 1 μM were added. After further culture for 24 hr, the luciferase activity was measured, and the AR transcription inhibitory activity of the compound was examined."}, "[3]": {"molecular_target": "T2, LNCaP type mutant androgen receptor (AR) (Homo sapiens, UniProt P10275, T878A)", "T2 sequence (P10275 1-920 T878A)": "T1 sequence (P10275 1-920 W742C) with C742W, T878A", "test": "AR-binding inhibition test (LNCaP type), radio-labeled Mibolerone displacement", "conditions": "read-out: inhibition rate, LNCaP type", "procedure": "(§1) AR-Binding Inhibition Test (Wild Type and LNCaP Type)\n(§2) To a solution of wild type or LNCaP type mutant androgen receptor (AR) was added 3 nM radio-labeled Mibolerone and final concentration 1 μM of the compound. The mixture was incubated at 4° C. for 3 hours, and B (Bound) and F (Free) Mibolerones were separated by the dextran/charcoal method. The label count of B was measured and the inhibition rate of the compound was calculated."}, "[4]": {"molecular_target": "T3, wild type androgen receptor (AR) (Homo sapiens, UniProt P10275)", "T3 sequence (P10275 1-920)": "T1 sequence (P10275 1-920 W742C) with C742W", "test": "AR-binding inhibition test (wild type), radio-labeled Mibolerone displacement", "conditions": "read-out: inhibition rate, wild type", "procedure": "as §1, §2"}, "[5]": {"conditions": "compound final concentration 1 μM, 3 nM radio-labeled Mibolerone, 4° C., 3 hours, dextran/charcoal method"}}, "note": "Changes are numbered by the printed parent chain. Read-outs that look alike come from different tables or passages of the source."}
{"compound": "Cc1nn(-c2ccc(C#N)c(Cl)c2)c(C)c1Cc1ccc(C(=O)NC(C)(C)C)cc1", "note": "[Example 351, N-tert-butyl-4-{[1-(3-chloro-4-cyanophenyl)-3,5-dimethyl-1H-pyrazol-4-yl]methyl}benzamide]", "values": [{"measurement": "inhibition at 1 µM", "setting": "[1]", "value": 109, "unit": "%"}]}
{"compound": "Cc1nn(-c2ccc(C#N)c(Cl)c2)c(C)c1Oc1ccc(NC(=O)C(C)(C)C)cn1", "note": "[Example 455, N-(6-{[1-(3-chloro-4-cyanophenyl)-3,5-dimethyl-1H-pyrazol-4-yl]oxy}pyridin-3-yl)-2,2-dimethylpropanamide]", "values": [{"measurement": "inhibition at 1 µM", "setting": "[1]", "value": 108, "unit": "%"}]}
{"compound": "Cc1nn(-c2ccc(C#N)c(Cl)c2)c(C)c1Cc1ccc(C(=O)NCC(O)CO)cc1", "note": "(racemic) [Example 321, (±)-4-{[1-(3-chloro-4-cyanophenyl)-3,5-dimethyl-1H-pyrazol-4-yl]methyl}-N-(2,3-dihydroxypropyl)benzamide]", "values": [{"measurement": "inhibition at 1 µM", "setting": "[1]", "value": 91, "unit": "%"}, {"measurement": "inhibition at 1 µM", "setting": "[2]", "value": 38, "unit": "%"}, {"measurement": "inhibition at 1 µM", "setting": "[3]", "value": 84, "unit": "%"}, {"measurement": "inhibition at 1 µM", "setting": "[4]", "value": 78, "unit": "%"}]}
{"compound": "Cc1nn(-c2ccc(C#N)c(Cl)c2)c(C)c1Oc1ccc(C(=O)N2CCOCC2)cc1", "note": "[Example 357, 2-chloro-4-{3,5-dimethyl-4-[4-(morpholin-4-ylcarbonyl)phenoxy]-1H-pyrazol-1-yl}benzonitrile]", "values": [{"measurement": "inhibition at 1 µM", "setting": "[1]", "value": 100, "unit": "%"}]}
{"compound": "Cc1nn(-c2ccc(C#N)c(Cl)c2)c(C)c1Cc1ccc(C(=O)N(C)CCO)cc1", "note": "[Example 296, 4-{[1-(3-chloro-4-cyanophenyl)-3,5-dimethyl-1H-pyrazol-4-yl]methyl}-N-(2-hydroxyethyl)-N-methylbenzamide]", "values": [{"measurement": "inhibition at 1 µM", "setting": "[1]", "value": 79, "unit": "%"}, {"measurement": "inhibition at 1 µM", "setting": "[2]", "value": 39, "unit": "%"}, {"measurement": "inhibition at 1 µM", "setting": "[3]", "value": 64, "unit": "%"}, {"measurement": "inhibition at 1 µM", "setting": "[4]", "value": 52, "unit": "%"}]}
{"compound": "Cc1nn(-c2ccc(C#N)c(Cl)c2)c(C)c1Cc1ccc(C(=O)N2CC(O)C2)cc1", "note": "[Example 363, 2-chloro-4-(4-{4-[(3-hydroxyazetidin-1-yl)carbonyl]benzyl}-3,5-dimethyl-1H-pyrazol-1-yl)benzonitrile]", "values": [{"measurement": "inhibition at 1 µM", "setting": "[1]", "value": 100, "unit": "%"}, {"measurement": "inhibition at 1 µM", "setting": "[2]", "value": 23, "unit": "%"}, {"measurement": "inhibition at 1 µM", "setting": "[3]", "value": 79, "unit": "%"}, {"measurement": "inhibition at 1 µM", "setting": "[4]", "value": 73, "unit": "%"}]}
{"compound": "Cc1nn(-c2ccc(C#N)c(Cl)c2)c(C)c1Cc1ccc(-c2nnc(C(N)=O)o2)cc1", "note": "[Example 350, 5-(4-{[1-(3-chloro-4-cyanophenyl)-3,5-dimethyl-1H-pyrazol-4-yl]methyl}phenyl)-1,3,4-oxadiazole-2-carboxamide]", "values": [{"measurement": "inhibition at 1 µM", "setting": "[1]", "value": 101, "unit": "%"}, {"measurement": "inhibition at 1 µM", "setting": "[2]", "value": 93, "unit": "%"}, {"measurement": "inhibition at 1 µM", "setting": "[3]", "value": 92, "unit": "%"}, {"measurement": "inhibition at 1 µM", "setting": "[4]", "value": 87, "unit": "%"}]}
{"compound": "Cc1nn(-c2ccc(C#N)c(Cl)c2)c(C)c1Oc1ccc(C(=O)N2CCS(=O)(=O)CC2)cc1", "note": "[Example 367, 2-chloro-4-(4-{4-[(1,1-dioxidethiomorpholin-4-yl)carbonyl]phenoxy}-3,5-dimethyl-1H-pyrazol-1-yl)benzonitrile]", "values": [{"measurement": "inhibition at 1 µM", "setting": "[1]; compound 1 μM, testosterone final concentration 0.1 ng/m, PSA in culture supernatant after 3 days by ELISA, testosterone non-addition group = 100%, testosterone addition group = 0%", "value": 109, "unit": "%"}, {"measurement": "inhibition at 1 µM", "setting": "[2]", "value": 24, "unit": "%"}, {"measurement": "inhibition at 1 µM", "setting": "[3]; [5]", "value": 77, "unit": "%"}, {"measurement": "inhibition at 1 µM", "setting": "[4]; [5]", "value": 49, "unit": "%"}]}
{"compound": "CC(O)(CS(=O)(=O)c1ccc(F)cc1)C(=O)Nc1ccc(C#N)c(C(F)(F)F)c1", "note": "(stereo not drawn) [bicartamide, reference compound]", "values": [{"measurement": "PSA production inhibitory rate (%)", "setting": "[1]; 1 µM", "value": 75, "unit": "%"}]}
{"compound": "Cc1nn(-c2ccc(C#N)c(Cl)c2)c(C)c1Cc1ccc(C(=O)NCC(C)(C)O)cc1", "note": "[Example 356, 4-{[1-(3-chloro-4-cyanophenyl)-3,5-dimethyl-1H-pyrazol-4-yl]methyl}-N-(2-hydroxy-2-methylpropyl)benzamide]", "values": [{"measurement": "inhibition at 1 µM", "setting": "[1]", "value": 98, "unit": "%"}]}
{"compound": "Cc1nn(-c2ccc(C#N)c(Cl)c2)c(C)c1Cc1ccc(C(=O)N2CCC(O)CC2)cc1", "note": "[Example 355, 2-chloro-4-(4-{4-[(4-hydroxypiperidin-1-yl)carbonyl]benzyl}-3,5-dimethyl-1H-pyrazol-1-yl)benzonitrile]", "values": [{"measurement": "inhibition at 1 µM", "setting": "[1]", "value": 117, "unit": "%"}, {"measurement": "inhibition at 1 µM", "setting": "[2]", "value": 23, "unit": "%"}, {"measurement": "inhibition at 1 µM", "setting": "[3]", "value": 51, "unit": "%"}, {"measurement": "inhibition at 1 µM", "setting": "[4]", "value": 47, "unit": "%"}]}
{"compound": "Cc1nn(-c2ccc(C#N)c(Cl)c2)c(C)c1Cc1ccc(C(=O)N2CC[C@H](O)C2)cc1", "note": "[Example 332, 2-chloro-4-[4-(4-{[(3S)-3-hydroxypyrrolidin-1-yl]carbonyl}benzyl)-3,5-dimethyl-1H-pyrazol-1-yl]benzonitrile]", "values": [{"measurement": "inhibition at 1 µM", "setting": "[1]", "value": 84, "unit": "%"}, {"measurement": "inhibition at 1 µM", "setting": "[2]", "value": 22, "unit": "%"}, {"measurement": "inhibition at 1 µM", "setting": "[3]", "value": 78, "unit": "%"}, {"measurement": "inhibition at 1 µM", "setting": "[4]", "value": 72, "unit": "%"}]}
